Counter-ions that a name gives are not always drawn.

The data set in a line: RP, Waters ACQUITY Premier BEH C18, 100 × 2.1 mm, 1.7 µm, 40 °C, 0.3 to 0.4 mL/min, estimated dead time 0.73 min; A: water + 0.1% formic acid; B: acetonitrile + 0.1% formic acid; gradient (min/%B) 0/0.5 0.1/0.5 10/80 10.1/99.5 12/0.5 12.1/0.5 14.5/0.5. As to conditions: stereoisomer not certain.
In the case of `CCCCCCCCCCCCCC(=O)OCC(O)CO` (stereo not drawn) [GLYCEROL-MYRISTATE], the LC retention time is 8.67 min.
The same measure for `CSCC[C@H](NC=O)C(=O)O` [N-FORMYL-L-METHIONINE]: 4.06 min; for `CC=CC=CC(=O)O` [SORBATE]: 5.71 min; for `CC12CCC3c4ccc(O)cc4CCC3C1CCC2O` (stereo not drawn) [ESTRADIOL-17ALPHA]: 7.15 min.
The same measure for `CC(C(=O)O)C(O)(CC(=O)O)C(=O)O` (stereo not drawn) [2-METHYLCITRATE]: 3.44 min; for `NC(=O)c1ccccc1O` [SALICYLAMIDE]: 5.04 min; for `Cn1c(=O)[nH]c2ncn(C)c2c1=O` [PARAXANTHINE]: 3.95 min.
The same measure for `CCC(C)C(=O)C(=O)O` (stereo not drawn) [3-METHYL-2-OXOVALERATE]: 4.42 min.
`O=c1c(-c2ccc(O)cc2)coc2cc(O)ccc12` [DAIDZEIN]: the LC retention time was 5.4 min.
The same measure for `Nc1ncnc2c1ncn2C1OC(COP(=O)(O)O)C(O)C1O` (stereo not drawn) [ADENOSINE-MONOPHOSPHATE]: 1.35 min.
Next, `O=C(O)Cc1ccccc1O` [ORTHO-HYDROXYPHENYLACETIC ACID]: 4.97 min; `Cn1cnc2c(ncn2C2OC(CO)C(O)C2O)c1=N` (stereo not drawn) [1-METHYLADENOSINE]: 2.05 min; `Nc1nc2c(ncn2C2CC(O)C(CO)O2)c(=O)[nH]1` (stereo not drawn) [DEOXYGUANOSINE]: 3.39 min.
Next, `CCCCCC(O)C(O)CC=CCCCCCCCC(=O)O` (stereo not drawn) [12,13-DIHOME]: 7.5 min.
For the molecule `CC(CCC(=O)O)C1CCC2C3C(=O)CC4CC(O)CCC4(C)C3CCC12C` (stereo not drawn) [NUTRIACHOLIC ACID], the LC retention time was 7.25 min.
Next, `O=C([O-])C(O)Cc1ccc(O)c(O)c1.[Na+]` (stereo not drawn) [3-(3,4-DIHYDROXYPHENYL)LACTIC ACID]: 3.74 min; `COc1ccc2c3c([nH]c2c1)C(C)=NCC3` [HARMALINE]: 4.51 min.
Next, `C=Cc1c(C)c2cc3[nH]c(cc4nc(cc5nc(cc1[nH]2)C(C)=C5CCC(=O)O)C(CCC(=O)O)=C4C)c(C)c3C=C` [PROTOPORPHYRIN]: 9.14 min; `O=c1c(-c2ccc(O)cc2)coc2cc(OC3OC(CO)C(O)C(O)C3O)cc(O)c12` (stereo not drawn) [GENISTIN]: 4.57 min; `CCCCCCC(N)C(=O)O` (racemic) [DL-2-AMINOOCTANOIC ACID]: 4.04 min.
For `O=c1c(OC2OC(CO)C(O)C(O)C2O)c(-c2ccc(O)c(O)c2)oc2cc(O)cc(O)c12` (stereo not drawn) [QUERCETIN 3-GALACTOSIDE], the LC retention time is 4.41 min.
Next, `O=c1oc2cc(O)ccc2c2oc3cc(O)ccc3c12` [COUMESTEROL]: 6.04 min; `O=C(O)c1cccnc1C(=O)O` [QUINOLINATE]: 1.61 min; `NCCc1c[nH]c2ccc(O)cc12` [SEROTONIN]: 3.44 min.
The same measure for `Cc1ncc(CO)c(C(=O)O)c1O` [4-PYRIDOXATE]: 3.4 min; for `CCCCCC1CCCC(=O)O1` (stereo not drawn) [DELTA-DECALACTONE]: 7.1 min.
The same measure for `OCC1OC(Oc2ccc3c(c2)OCC2c4cc5c(cc4OC32)OCO5)C(O)C(O)C1O` (stereo not drawn) [TRIFOLIRHIZIN]: 4.35 min; for `Cn1c(=O)c2[nH]cnc2n(C)c1=O` [THEOPHYLLINE]: 3.96 min.
Consider `CSCCC(O)C(=O)O` (stereo not drawn) [2-HYDROXY-4-(METHYLTHIO)BUTANOATE], for which the LC retention time is 4.06 min.
Take `COc1cc2ccc(=O)oc2cc1O` [SCOPOLETIN]: the LC retention time was 4.62 min.
The same measure for `O=S(=O)(O)Oc1c[nH]c2ccccc12` [INDOXYL SULFATE]: 4.58 min; for `Cn1cnc2c1c(=O)[nH]c(=O)n2C` [THEOBROMINE]: 3.71 min.
The same measure for `COc1cc(C=CC(=O)O)cc(OC)c1OC` [3,4,5-TRIMETHOXYCINNAMIC ACID]: 5.7 min; for `O=C(O)c1c(O)cccc1O` [2,6-DIHYDROXYBENZOIC ACID]: 4.5 min; for `Nc1ncnc2c1ncn2C1CC(O)C(COP(=O)(O)O)O1` (stereo not drawn) [DEOXYADENOSINE MONOPHOSPHATE]: 2.07 min.
The same measure for `CC(CC(=O)O)C(=O)O` (stereo not drawn) [METHYLSUCCINIC ACID]: 3.75 min; for `O=C(O)C[C@H]1CC[C@@H](O)CC1` [CIS-4-HYDROXYCYCLOHEXYLACETIC ACID]: 4.12 min; for `CSc1ncnc2nc[nH]c12` [THIOPURINE S-METHYLETHER]: 4.31 min.
`O=C(O)C[C@H](NC(=O)Cc1c[nH]c2ccccc12)C(=O)O` [L-N-(1H-INDOL-3-YLACETYL)ASPARTIC ACID]: the LC retention time was 4.39 min.
The same measure for `CCCCCC(O)CC(=O)CCc1ccc(O)c(OC)c1` (stereo not drawn) [GINGEROL]: 7.34 min.
The same measure for `O=C(O)c1ccc2ccccc2c1O` [1-HYDROXY-2-NAPHTHOATE]: 7.32 min; for `Cc1c(O)cc2c(c1C)OC(C)(CCC(=O)O)CC2` (stereo not drawn) [GAMMA-CEHC]: 6.69 min.
Take `O=c1c(-c2ccc(O)cc2)coc2c(C3OC(CO)C(O)C(O)C3O)c(O)ccc12` (stereo not drawn) [PUERARIN]: the LC retention time is 3.76 min.
The same measure for `O=C(OC1Cc2c(O)cc(O)cc2OC1c1cc(O)c(O)c(O)c1)c1cc(O)c(O)c(O)c1` (single isomer, unassigned; (-)) [(-)-EPIGALLOCATECHIN-3-GALLATE]: 3.98 min; for `CCCCCCCCCCCCCCCCCC(=O)NCCO` [STEAROYLETHANOLAMIDE]: 9.74 min; for `CCCCCC=CCC=CCC=CCC=CCCCC(=O)O` [ARACHIDONIC ACID]: 9 min.
The same measure for `Cn1c(=O)[nH]c2nc[nH]c2c1=O` [1-METHYLXANTHINE]: 1.42 min; for `NC(CCS)C(=O)O` (stereo not drawn) [HOMOCYSTEINE]: 0.963 min.

These data come from the RepoRT retention time repository.
